Source: US20220220128A1, “HETEROCYCLIC COMPOUNDS AS KINASE INHIBITORS, COMPOSITIONS COMPRISING THE HETEROCYCLIC COMPOUND, AND METHODS OF USE THEREOF” (JS Innopharm (Shanghai) Ltd, priority 2019, published 2022)
Read-outs that look alike come from different tables or passages of the source.

Key:
human KDR kinase = target: T1, human KDR kinase (Homo sapiens, UniProt P35968); test: KDR Kinase Assay (LanthaScreen TR-FRET enzymatic assay); assay type: biochemical; details: 1.2 nM KDR, 92 μM ATP
T1 construct: purchased Carna 08-191
How it was run: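 Recombinant human KDR (1.2 nM) preincubated 15 min at room temperature with compound, then reacted with 3 μM FAM-P22 peptide and 92 μM ATP in 50 mM HEPES pH 7.5 for 1 h at 28° C. EDTA stop, then TR-FRET acceptor/donor ratio read; percent of 1% DMSO control fitted sigmoidally for IC50.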

human RET kinase = target: T2, human RET kinase (Homo sapiens, UniProt P07949); test: RET Kinase Assay (LanthaScreen TR-FRET enzymatic assay); assay type: biochemical; details: 7 nM RET, 23 μM ATP
T2 construct: purchased Carna 08-159
How it was run: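 Human RET (7 nM) preincubated 15 min with compound in 50 mM HEPES pH 7.5, 0.0015% Brij-35, then reacted with 3 μM FAM-P2 peptide and 23 μM ATP for 1 h at 28° C.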

TT cells = test: TT Cell Proliferation Assay (WST-8, 8 days); assay type: cell-based; details: growth inhibition in TT cells, read-out: TT Cellular Activity
How it was run: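 TT cells, 6,000/well in RPMI-1640 with 10% FBS, attached 24 h, then exposed to compound at 5 μM down to 0.0005 μM final (0.5% DMSO) for 8 days at 37 °C. WST-8 added for 5 h, absorbance at 450 nm. IC50 calculated from the dilution series.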

T2 sequence (P07949 29-1114): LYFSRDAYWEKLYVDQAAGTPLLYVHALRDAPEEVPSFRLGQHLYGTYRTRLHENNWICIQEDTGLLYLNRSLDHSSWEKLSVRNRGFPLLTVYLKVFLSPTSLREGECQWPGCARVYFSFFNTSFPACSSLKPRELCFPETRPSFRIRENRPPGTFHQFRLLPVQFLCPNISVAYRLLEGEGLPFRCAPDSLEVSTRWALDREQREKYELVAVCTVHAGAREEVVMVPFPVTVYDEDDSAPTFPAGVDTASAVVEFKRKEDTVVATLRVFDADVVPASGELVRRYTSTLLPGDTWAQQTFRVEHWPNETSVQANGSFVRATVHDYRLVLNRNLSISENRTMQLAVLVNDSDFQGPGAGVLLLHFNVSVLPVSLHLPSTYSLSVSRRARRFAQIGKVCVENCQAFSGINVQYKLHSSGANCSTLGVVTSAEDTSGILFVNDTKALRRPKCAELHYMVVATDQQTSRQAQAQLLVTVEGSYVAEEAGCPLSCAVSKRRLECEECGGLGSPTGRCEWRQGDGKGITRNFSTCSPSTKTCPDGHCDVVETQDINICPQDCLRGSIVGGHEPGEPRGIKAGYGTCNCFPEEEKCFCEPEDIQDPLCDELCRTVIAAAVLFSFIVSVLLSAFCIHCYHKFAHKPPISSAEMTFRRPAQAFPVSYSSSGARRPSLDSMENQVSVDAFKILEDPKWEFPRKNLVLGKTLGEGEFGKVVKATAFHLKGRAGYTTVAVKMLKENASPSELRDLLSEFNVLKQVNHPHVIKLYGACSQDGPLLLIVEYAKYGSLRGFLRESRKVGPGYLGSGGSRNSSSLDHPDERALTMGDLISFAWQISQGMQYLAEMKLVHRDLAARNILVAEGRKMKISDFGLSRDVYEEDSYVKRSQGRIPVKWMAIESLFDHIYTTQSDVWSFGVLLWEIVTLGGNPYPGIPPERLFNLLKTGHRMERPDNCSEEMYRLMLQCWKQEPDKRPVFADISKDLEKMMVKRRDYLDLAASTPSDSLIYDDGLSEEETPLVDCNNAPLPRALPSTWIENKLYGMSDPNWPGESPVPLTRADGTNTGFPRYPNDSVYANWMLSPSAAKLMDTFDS
T1 sequence (P35968 20-1356): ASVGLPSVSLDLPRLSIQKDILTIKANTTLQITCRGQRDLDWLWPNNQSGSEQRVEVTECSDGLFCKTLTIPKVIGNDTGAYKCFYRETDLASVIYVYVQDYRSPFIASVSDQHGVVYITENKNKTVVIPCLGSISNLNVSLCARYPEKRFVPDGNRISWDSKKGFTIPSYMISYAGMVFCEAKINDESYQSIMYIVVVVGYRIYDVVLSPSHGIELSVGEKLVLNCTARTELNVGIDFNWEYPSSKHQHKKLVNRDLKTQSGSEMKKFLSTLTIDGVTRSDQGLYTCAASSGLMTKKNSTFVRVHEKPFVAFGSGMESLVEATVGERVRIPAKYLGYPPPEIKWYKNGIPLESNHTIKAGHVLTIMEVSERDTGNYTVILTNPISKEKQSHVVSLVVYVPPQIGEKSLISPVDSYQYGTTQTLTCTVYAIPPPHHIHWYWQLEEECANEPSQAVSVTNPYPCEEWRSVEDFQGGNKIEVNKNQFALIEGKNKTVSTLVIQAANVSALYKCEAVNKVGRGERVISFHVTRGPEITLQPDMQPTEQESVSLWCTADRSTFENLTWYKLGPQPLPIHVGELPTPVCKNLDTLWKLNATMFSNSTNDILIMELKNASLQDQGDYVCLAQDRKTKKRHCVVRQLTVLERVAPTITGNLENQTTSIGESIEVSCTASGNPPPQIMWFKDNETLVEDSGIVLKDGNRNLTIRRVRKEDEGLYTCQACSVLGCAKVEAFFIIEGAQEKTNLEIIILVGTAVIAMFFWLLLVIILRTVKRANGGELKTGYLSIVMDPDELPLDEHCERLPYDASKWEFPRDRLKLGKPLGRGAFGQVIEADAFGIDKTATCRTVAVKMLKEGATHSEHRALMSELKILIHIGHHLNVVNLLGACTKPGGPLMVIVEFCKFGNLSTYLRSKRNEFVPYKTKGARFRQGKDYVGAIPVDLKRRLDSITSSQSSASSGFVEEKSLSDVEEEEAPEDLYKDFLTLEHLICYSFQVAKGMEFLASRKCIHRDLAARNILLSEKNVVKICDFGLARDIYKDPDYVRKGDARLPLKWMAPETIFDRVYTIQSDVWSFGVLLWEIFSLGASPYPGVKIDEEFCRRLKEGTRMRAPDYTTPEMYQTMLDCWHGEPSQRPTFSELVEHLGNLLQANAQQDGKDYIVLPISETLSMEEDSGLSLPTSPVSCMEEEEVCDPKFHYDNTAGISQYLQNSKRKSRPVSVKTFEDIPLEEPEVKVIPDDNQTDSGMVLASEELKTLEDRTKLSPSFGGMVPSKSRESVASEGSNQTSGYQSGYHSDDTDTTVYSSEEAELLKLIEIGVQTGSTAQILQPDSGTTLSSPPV

IC50 (human KDR kinase) | IC50 (human RET kinase) | SMILES | IC50 (TT cells) | IC50 (TT cells; Homo sapiens, TT, 192 h)
≤ 10 nM | ≤ 10 nM | Cc1cccc(Cl)c1C(=O)NC[C@@H]1[C@H]2CN(c3ccc(-c4cc(-c5cnn(C)c5)cn5ncc(C#N)c45)cn3)C[C@@H]12 [Example 84, 2-chloro-N-(((1R,5S,6s)-3-(5-(3-cyano-6-(1-methyl-1H-pyrazol-4-yl)pyrazolo[1,5-a]pyridin-4-yl)pyridin-2-yl)-3-azabicyclo[3.1.0]hexan-6-yl)methyl)-6-methylbenzamide] | ≤ 10 nM | –
≤ 10 nM | ≤ 10 nM | Cn1cc(-c2cc(-c3ccc(N4C[C@@H]5[C@@H](CNC(=O)c6ncccc6C(F)(F)F)[C@@H]5C4)nc3)c3c(C#N)cnn3c2)cn1 [Example 186, N-(((1R,5S,6s)-3-(5-(3-cyano-6-(1-methyl-1H-pyrazol-4-yl)pyrazolo[1,5-a]pyridin-4-yl)pyridin-2-yl)-3-azabicyclo[3.1.0]hexan-6-yl)methyl)-3-(trifluoromethyl)picolinamide] | – | ≤ 10 nM
10 to 50 nM | ≤ 10 nM | CC(C)CC(=O)N[C@H]1[C@@H]2CN(c3ccc(-c4cc(-c5cnn(C)c5)cn5ncc(C#N)c45)cn3)C[C@@H]21 [Example 25, N-((1R,5S,6s)-3-(5-(3-cyano-6-(1-methyl-1H-pyrazol-4-yl)pyrazolo[1,5-a]pyridin-4-yl)pyridin-2-yl)-3-azabicyclo[3.1.0]hexan-6-yl)-3-methylbutanamide] | – | 10 to 50 nM
10 to 50 nM | ≤ 10 nM | CC(C)(O)COc1cc(-c2ccc(N3C[C@@H]4C[C@@](C)(NC(=O)c5ncccc5F)C[C@@H]4C3)nc2)c2c(C#N)cnn2c1 [Example 128, N-((3aR,5s,6aS)-2-(5-(3-cyano-6-(2-hydroxy-2-methylpropoxy)pyrazolo[1,5-a]pyridin-4-yl)pyridin-2-yl)-5-methyloctahydrocyclopenta[c]pyrrol-5-yl)-3-fluoropicolinamide] | – | 10 to 50 nM
10 to 50 nM | ≤ 10 nM | Cn1cc(-c2cc(-c3ccc(N4C[C@@H]5[C@H](C4)[C@@H]5NC(=O)c4ncccc4Cl)nc3)c3c(C#N)cnn3c2)cn1 [Example 30, 3-chloro-N-((1R,5S,6r)-3-(5-(3-cyano-6-(1-methyl-1H-pyrazol-4-yl)pyrazolo[1,5-a]pyridin-4-yl)pyridin-2-yl)-3-azabicyclo[3.1.0]hexan-6-yl)picolinamide] | – | 10 to 50 nM
≤ 10 nM | ≤ 10 nM | Cn1cc(-c2cc(-c3ccc(N4C[C@@H]5[C@@H](CNC(=O)C(O)c6ccccc6)[C@@H]5C4)nc3)c3c(C#N)cnn3c2)cn1 (stereo partly drawn) [Example 76, N-(((1R,5S,6s)-3-(5-(3-cyano-6-(1-methyl-1H-pyrazol-4-yl)pyrazolo[1,5-a]pyridin-4-yl)pyridin-2-yl)-3-azabicyclo[3.1.0]hexan-6-yl)methyl)-2-hydroxy-2-phenylacetamide] | – | 10 to 50 nM
10 to 50 nM | ≤ 10 nM | Cn1cc(-c2cc(-c3ccc(N4C[C@@H]5[C@@H](CNC(=O)OC(C)(C)C)[C@@H]5C4)nc3)c3c(C#N)cnn3c2)cn1 [Example 71, tert-butyl (((1R,5S,6s)-3-(5-(3-cyano-6-(1-methyl-1H-pyrazol-4-yl)pyrazolo[1,5-a]pyridin-4-yl)pyridin-2-yl)-3-azabicyclo[3.1.0]hexan-6-yl)methyl)carbamate] | – | ≤ 10 nM
10 to 50 nM | ≤ 10 nM | CCOc1cc(-c2ccc(N3C[C@@H]4C[C@@](C)(NC(=O)c5ncc(F)cc5Cl)C[C@@H]4C3)nc2)c2c(C#N)cnn2c1 [Example 64, 3-chloro-N-((3aR,5s,6aS)-2-(5-(3-cyano-6-ethoxypyrazolo[1,5-a]pyridin-4-yl)pyridin-2-yl)-5-methyloctahydrocyclopenta[c]pyrrol-5-yl)-5-fluoropicolinamide] | – | 50 to 100 nM
